Source: paper PMC13185115, “Photovermellogens: Minimalistic Pyridinium-Based Acylhydrazones with Photoswitchable Basicity for Operation in Aqueous Media” (The Journal of Organic Chemistry, 2026)

How the values were obtained:
Format in all cases: physicochemical
[1] = Thermal Z-PH+ to E-PH+ back-isomerization kinetics; conditions: Arrhenius analysis, 47, 55 and 64 °C, from 254 nm photostationary state
Excerpt: Photoisomerization studies were subsequently carried out in acidic medium (pH = pK a – 2) in order to assess the photoresponse of the protonated species. Under these conditions, the anticipated photoisomerization of the thermally stable E-P a–dH^+ species was investigated by UV–vis absorption spectroscopy under irradiation at 254 nm. […] It is noteworthy that the irradiation wavelength can be extended to 365 nm, yielding virtually the same observations as for 254 nm irradiation (see footnotes of Table ). Irradiation also produced clear NMR spectral changes that support the occurrence of the E→Z isomerization. In essence, the signals Hf–h of the phenyl moiety were only slightly affected, whereas those of the pyridinium and acylhydrazone fragments shifted markedly, consistent with the formation of an intramolecular hydrogen bond in the Z-P a–cH^+ species. The reverse Z→E transformation of the protonated forms P a–cH^+ was also achieved upon irradiation at λ > 420 nm, giving lower quantum yields and less favorable PSDs (Figures S145–S147, S149–154, S1).
5.5. Z-P a-cH+→E-P a-cH+ thermal back-isomerization kinetics.
Figure S155. Absorption spectrum variation during 48h at room temperature from the PSS reached for P aH·Cl (7µM, pH 6, Red) state during 48h. E-isomer absorption spectrum in green.
Even though the kinetics has not been fully completed, it can be observed that it occurs much more slowly than photochemical processes.
To obtain an estimation of P aH·Cl Z→E thermal half-live at room temperature, the Z →E thermal reversion kinetics were monitored starting from the 254nm photostationary state at different temperatures (47, 55 and 64 °C). By tracking the absorbance changes at 420 nm, an Arrhenius analysis was performed, allowing the determination of the activation energy (EA) and the estimation of the thermal half-life at 25 °C.

[2] = Thermal Z-P to E-P isomerization of the kinetically trapped conjugate bases at pH 13; conditions: 26 µM, pH 13, room temperature, monitored at 429 nm
Excerpt: Having confirmed the photochemical behavior of the protonated forms, we next explored their light-responsiveness in the deprotonated state. […] To probe whether Z-P a–c could nonetheless be generated indirectly, we explored a consecutive photoisomerization–deprotonation sequence. Thus, E-P a–cH^+ was first irradiated at 254 nm and pH 6 to enrich the Z population, followed by immediate adjustment of the solution to pH 13. Under these conditions, transient spectroscopic features were observed, consistent with the kinetic trapping of the metastable Z-P a–c species. […]
To gain further insight into the behavior of the metastable Z-bases, absorbance changes of the kinetically trapped state were monitored over time in the dark for the whole P a–c series. […]
(§1) Figure S169. […] Right: Kinetics (monitored at 429 nm) of the isomerization of Z-P a to E-P a (26 µM) at room temperature. k = 7.2 × 10 –4 s–1.
(§2) Figure S170. […] Right: Kinetics (monitored at 429 nm) of the photoisomerization of Z-P a to E-P a (26 µM) upon irradiation at >495 nm. k = 2.5 × 10 –3 s–1. […]
is in blue. Right: Kinetics (monitored at 456 nm) of the isomerization of Z-P b to E-P b (15 µM) at room temperature. k = 8.9 × 10 –5 s–1. […]
is in blue. Right: Kinetics (monitored at 432 nm) of the isomerization of Z-P c to E-P c (16 µM) at room temperature. k = 8.4 × 10 –5 s–1.

[3] = Irradiation of the conjugate bases (E→Z attempt; Z→E at >495 nm); conditions: 26 µM, pH 13, irradiation at >495 nm, monitored at 429 nm
Excerpt: Having confirmed the photochemical behavior of the protonated forms, we next explored their light-responsiveness in the deprotonated state. […] To probe whether Z-P a–c could nonetheless be generated indirectly, we explored a consecutive photoisomerization–deprotonation sequence. Thus, E-P a–cH^+ was first irradiated at 254 nm and pH 6 to enrich the Z population, followed by immediate adjustment of the solution to pH 13. Under these conditions, transient spectroscopic features were observed, consistent with the kinetic trapping of the metastable Z-P a–c species. […] These spectroscopic observations enabled the estimation of virtual pK a values for the Z-enriched solutions (Table and Figures S163–168, SI1), which confirmed the reduced acidity of the NH group in the Z-isomers, presumably arising from intramolecular hydrogen-bond formation.
To gain further insight into the behavior of the metastable Z-bases, absorbance changes of the kinetically trapped state were monitored over time in the dark for the whole P a–c series.
7. Thermal Z-P a-c→E-P a-c isomerizations from the PSS […]
as §1, §2

Row | activation energy E A of thermal Z→E reversion [1] [kcal·mol^–1] | SMILES | k thermal isomerization Z-P to E-P [2] | k photoisomerization Z-P to E-P [3]
1 | 17.4 | C[n+]1ccc(N/N=C\C(=O)c2ccccc2)cc1 [Z-P aH^+] |  | 
2 |  | C[n+]1ccc([N-]/N=C\C(=O)c2ccccc2)cc1 [Z-P a] | 7.2 10^–4 s^–1 | 2.5 10^–3 s^–1
